Measured values as given in patent US20190274937A1, “MICROBIOME-SAFE COSMETIC CLEANING COMPOSITIONS” (Yun NV, priority 2016, published 2019).

Legend:
[1] = Spread plating; format: cell-based; details: surfactants of negative control P3
Protocol: The negative control (P3) has no growth after incubation in MRS. It contains the anionic Sodium Laureth sulphate (14% final) and cocamidopropyl betaine, some of the most commonly used surfactants in present-day soaps.

[2] = system: lactobacillus; experiment: More detailed screening of the products for ingredients responsible for growth retardation (data not shown); format: cell-based
Source text: A more detailed screening of the products (data not shown) led to a few common ingredients found in most shower cosmetics that can be held responsible for the growth retardation in FIG. 1.0. […] As strong and fast working preservatives; phenoxyethanol, parabens, bronopol, sulphites/sulphates, benzylalcohol and others were identified. Most allergens in perfume can also be identified as being harmful for bacteria.

Row | Substance | bactericidal effect [1] | effect on bacteria / the present lactobacillus [2]
1 | Sodium laureth sulphate | bactericidal effect | very strong bactericidal effect
2 | cocamidopropyl betaine | bactericidal effect | big negative influence
